In paper PMC6009898 (Journal of Enzyme Inhibition and Medicinal Chemistry, 2017):
Several values for one entry are separate records, joined by “and”; a condition that tells them apart may be missing. Equal values may be shown once.

Assays:
[1] = target: T1, BuChE (from equine serum) (Equus caballus, UniProt P81908); assay: biochemical; type: biochemical; settings: IC50 eqBuChE, means ± SD of three experiments
T1 construct: butyrylcholinesterase (BuChE, E.C. 3.1.1.8) from equine serum and human serum; purchased Sigma-Aldrich (St. Louis, MO); host or cells: equine serum
T1 sequence (P81908 whole entry): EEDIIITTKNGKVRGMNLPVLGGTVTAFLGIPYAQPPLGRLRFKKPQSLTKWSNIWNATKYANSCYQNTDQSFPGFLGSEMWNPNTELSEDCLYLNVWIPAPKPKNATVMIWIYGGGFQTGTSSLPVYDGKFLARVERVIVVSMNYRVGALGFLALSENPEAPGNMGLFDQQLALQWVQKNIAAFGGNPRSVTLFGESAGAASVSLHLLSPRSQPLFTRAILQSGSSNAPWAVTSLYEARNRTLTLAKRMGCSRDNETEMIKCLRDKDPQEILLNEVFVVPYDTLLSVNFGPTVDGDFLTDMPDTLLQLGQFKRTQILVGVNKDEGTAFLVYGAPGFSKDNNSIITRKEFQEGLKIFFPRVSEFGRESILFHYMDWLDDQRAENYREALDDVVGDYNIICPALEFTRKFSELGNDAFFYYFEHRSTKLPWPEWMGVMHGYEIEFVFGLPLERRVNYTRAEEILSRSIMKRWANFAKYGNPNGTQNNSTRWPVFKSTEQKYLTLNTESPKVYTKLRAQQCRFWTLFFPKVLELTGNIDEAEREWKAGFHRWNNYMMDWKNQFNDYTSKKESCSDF

[2] = system: PC12 cells; assay: Cytotoxicity in PC12 cells (MTT assay); type: cell-based; settings: 3–50 μM, 24 h
Method: The toxicity effect of the tested compounds on the rat pheochromocytoma (PC12) cells was examined according to previously reported methods. PC 12 cells was obtained from the Cell Bank of the Chinese Academy of Sciences (Shanghai, China) and routinely grown at 37 °C in a humidified incubator with 5% CO2 in Dulbecco’s modified Eagle’s medium (DMEM) supplemented with 10% bovine calf serum, 100 units per mL penicillin, and 100 units per mL of streptomycin. Cells were sub-cultured in 96-well plates at a seeding density of 5000 cells per well and allowed to adhere and grow. When cells reached the required confluence, they were placed into serum-free medium and treated with compound 5l. Twenty-four hours later the survival of cells was determined by MTT assay. Briefly, after incubation with 20 μL of MTT at 37 °C for 4 h, living cells containing MTT formazan crystals were solubilized in 200 μL DMSO. The absorbance of each well was measured using a microculture plate reader with a test wavelength of 570 nm and a reference wavelength of 630 nm. Results are expressed as the mean ± SD of three independent experiments.

[3] = in vitro; parameters: Papp at 16 h: dose or concentration left out as unconfirmed; settings: for Papp at 16 h: PAMPA
Method: Commercial drugs were purchased from Sigma (St. Louis, MO) and Alfa Aesar (Haverhill, MA). The porcine brain lipid (PBL) was obtained from Avanti Polar Lipids (Alabaster, AL). The donor microplate (PVDF membrane, pore size […]) and the acceptor microplate were both from Millipore (Darmstadt, Germany). The 96-well UV plate (COSTAR^@) was from Corning Incorporated (Harrodsburg, KY). The acceptor 96-well microplate was filled with 300 μL of PBS/EtOH (7:3), and the filter membrane was impregnated with 4 μL of PBL in dodecane (20 mg/mL). […] The […] was carefully placed on the donor plate to form a sandwich, which was left undisturbed for 16 h at 25 °C. After incubation, the donor plate was carefully removed and the concentration of compound in the acceptor wells was determined using an UV plate reader (Flexstation^@ 3). Every sample was analyzed at five wavelengths, in four wells, in at least three independent runs, and the results are given as the mean ± SD. In each experiment, nine quality control standards of known BBB permeability were included to validate the analysis set.

[4] = target: EeAChE (Electrophorus electricus, UniProt O42275); assay: Kinetic analysis of AChE inhibition (Lineweaver–Burk plots); settings: 5l at 30.0, 15.0 and 7.5 nM
Chain of EeAChE (O42275 24-633): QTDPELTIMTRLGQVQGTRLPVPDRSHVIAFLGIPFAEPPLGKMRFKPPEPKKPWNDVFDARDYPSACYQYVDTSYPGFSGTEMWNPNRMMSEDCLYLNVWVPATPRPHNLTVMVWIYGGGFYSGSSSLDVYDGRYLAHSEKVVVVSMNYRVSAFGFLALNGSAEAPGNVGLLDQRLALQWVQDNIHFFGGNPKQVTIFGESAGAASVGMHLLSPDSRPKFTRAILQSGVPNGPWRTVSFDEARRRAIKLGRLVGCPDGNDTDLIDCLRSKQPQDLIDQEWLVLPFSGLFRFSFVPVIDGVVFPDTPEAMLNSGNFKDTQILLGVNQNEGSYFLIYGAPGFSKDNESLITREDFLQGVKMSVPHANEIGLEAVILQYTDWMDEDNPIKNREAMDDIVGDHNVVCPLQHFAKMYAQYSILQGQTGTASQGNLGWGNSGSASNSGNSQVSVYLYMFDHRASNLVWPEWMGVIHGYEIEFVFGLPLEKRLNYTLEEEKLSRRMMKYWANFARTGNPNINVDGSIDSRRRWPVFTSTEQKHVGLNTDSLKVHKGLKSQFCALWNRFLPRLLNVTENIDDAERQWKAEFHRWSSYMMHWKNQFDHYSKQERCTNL

[5] = target: T2, Aβ (1–42) (Homo sapiens, UniProt P05067); assay: Inhibition of Cu^2+-induced Aβ (1–42) aggregation (ThT assay); type: biochemical; settings: read-out: Inhibition of Cu^2+-induced Aβ aggregation
T2 sequence (P05067 672-713): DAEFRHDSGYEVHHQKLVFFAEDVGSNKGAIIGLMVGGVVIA
Method: The mixture of the peptide (10 μL, 25 μM, final concentration) with or without copper (10 μL, 25 μM, final concentration) and the test compound (10 μL, 50 μM, final concentration) were incubated at 37 °C for 24 h. The 20 μL of the sample was diluted to a final volume of 200 μL with […] glycine–NaOH buffer (pH 8.0) containing ThT (5 μM). The detection method was the same as that of self-induced Aβ aggregation experiment.

[6] = target: T3, human AChE (Homo sapiens, UniProt P22303); assay: biochemical; settings: means ± SD of three experiments; read-out: IC50 hAChE
T3 construct: Acetylcholinesterase (E.C. 3.1.1.7) from electric eel and human erythrocytes; purchased Sigma-Aldrich (St. Louis, MO); host or cells: human erythrocytes
T3 sequence (P22303 other isoform, or with tags, fused parts or gaps): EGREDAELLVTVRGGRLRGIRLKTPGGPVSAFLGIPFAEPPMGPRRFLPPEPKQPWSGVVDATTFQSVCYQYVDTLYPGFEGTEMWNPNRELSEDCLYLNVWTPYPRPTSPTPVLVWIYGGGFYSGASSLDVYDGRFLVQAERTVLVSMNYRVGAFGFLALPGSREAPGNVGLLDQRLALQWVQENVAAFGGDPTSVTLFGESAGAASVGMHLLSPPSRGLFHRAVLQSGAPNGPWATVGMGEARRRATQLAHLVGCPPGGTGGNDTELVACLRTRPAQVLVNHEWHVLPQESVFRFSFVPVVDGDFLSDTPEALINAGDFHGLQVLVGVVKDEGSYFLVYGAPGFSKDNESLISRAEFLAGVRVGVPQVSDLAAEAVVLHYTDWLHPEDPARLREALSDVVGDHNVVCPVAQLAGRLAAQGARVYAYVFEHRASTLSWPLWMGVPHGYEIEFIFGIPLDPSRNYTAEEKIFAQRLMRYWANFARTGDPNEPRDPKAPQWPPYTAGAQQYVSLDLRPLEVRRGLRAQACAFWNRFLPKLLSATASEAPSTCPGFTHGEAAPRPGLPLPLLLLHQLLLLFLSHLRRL

[7] = target: brain AChE (Mus musculus, UniProt P21836); settings: mice, 10 μmol/kg i.p., sacrificed 10 min after administration
Chain of brain AChE (P21836 32-614): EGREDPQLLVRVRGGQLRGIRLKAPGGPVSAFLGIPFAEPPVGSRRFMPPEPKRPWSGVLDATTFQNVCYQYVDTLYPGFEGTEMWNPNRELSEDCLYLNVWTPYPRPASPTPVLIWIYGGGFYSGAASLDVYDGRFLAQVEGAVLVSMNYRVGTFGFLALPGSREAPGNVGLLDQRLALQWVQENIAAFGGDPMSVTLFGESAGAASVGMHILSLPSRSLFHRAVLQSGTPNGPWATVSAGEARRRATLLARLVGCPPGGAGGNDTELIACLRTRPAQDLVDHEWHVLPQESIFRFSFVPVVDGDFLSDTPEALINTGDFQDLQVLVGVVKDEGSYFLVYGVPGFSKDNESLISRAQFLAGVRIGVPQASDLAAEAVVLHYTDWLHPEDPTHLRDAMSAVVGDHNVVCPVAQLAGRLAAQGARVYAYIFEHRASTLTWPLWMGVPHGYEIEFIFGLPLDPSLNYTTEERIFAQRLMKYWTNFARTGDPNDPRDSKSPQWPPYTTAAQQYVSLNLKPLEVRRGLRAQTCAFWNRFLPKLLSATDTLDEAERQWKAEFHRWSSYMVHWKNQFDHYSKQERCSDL

[8] = target: T2, Aβ (1–42); assay: Inhibition of Aβ (1–42) self-induced aggregation (Thioflavin T assay); settings: read-out: Aβ (1–42) aggregation inhibition (%)
[9] = system: PC12 cells; assay: Neuroprotection against Aβ (1–42)-induced toxicity in PC12 cells (MTT assay); type: cell-based; settings: Rattus norvegicus, PC-12, Aβ (1–42) 25 μM, 24 h, Aβ alone 44.2%, read-out: Cell viability (% of control) with Aβ (1–42)
Method: PC 12 cells were grown in RPMI-1640 medium containing 10% (v/v) foetal bovine serum, 100 U penicillin/mL and […] streptomycin/mL under 5% CO2 at 37 °C. The culture media were changed every other day. After pretreatment with different concentrations of test compound (0, 6, 12.5, 25, 50 μM) for 2 h, PC 12 cells were incubated with 25 μM of Aβ (1–42) for 24 h. The cell viability was evaluated using MTT assay. Briefly, the cells were treated with 10 μL MTT (5 mg/mL in PBS) for 4 h at 37 °C. Then, 200 μL of DMSO was added to dissolve the dark blue formazan crystals formed in intact cells, and the absorbance at 570 nm was detected by a microplate reader. PC12 cells were cultured without test compound or Aβ (1–42) as control group and the results were expressed by percentage of control.

[10] = target: T4, AChE (from electric eel) (Electrophorus electricus, UniProt O42275); assay: biochemical; settings: means ± SD of three experiments; read-out: IC50 eeAChE
T4 construct: Acetylcholinesterase (E.C. 3.1.1.7) from electric eel and human erythrocytes; purchased Sigma-Aldrich (St. Louis, MO); host or cells: electric eel (natural source)
T4 sequence (O42275 24-633): as the sequence (O42275 24-633) above

[11] = PAMPA-BBB literature value; cited from earlier work

SMILES: COc1ccc(/C=C/C(=O)Nc2cc[n+](Cc3ccc(F)cc3)cc2)cc1OC.[Br-] [Compound 5l, (E)-4-(3-(3,4-dimethoxyphenyl)acrylamido)-1-(4-fluorobenzyl) pyridin-1-ium bromide]
- IC50 [1]: 2500 nM and 2600 nM
- Effect on cell viability (toxicity) [2]: did not significantly affect cell viability
- Papp at 16 h [3]: 2.89 ± 0.37 ×10⁻⁶ cm/s
- BBB permeation prediction class ([3]; PAMPA-BBB): CNS+
- ABTS assay (trolox equiv): N (N means <0.05)
- Type of AChE inhibition [4]: mixed-type inhibitor
- inhibition at 50 µM [5]: 68.6%
- IC50 [6]: 8.6 ± 0.9 nM
- Inhibition (%) of brain AChE activity versus untreated controls [7]: 53.9 ± 2.9%
- inhibition at 20 µM [8]: 64.7 ± 1.6%
- viability at 6 µM ([9]; 6 μM compound): 47.6 ± 4.2%
- viability at 12.5 µM ([9]; 12.5 μM compound): 57.5 ± 1.4%
- viability at 25 µM ([9]; 25 μM compound): 63.2 ± 3.5%
- viability at 50 µM ([9]; 50 μM compound): 66.6 ± 2.5%
- IC50 [10]: 12.1 ± 1.8 nM

SMILES: NCCc1ccc(O)c(O)c1 [Dopamine, reference compound]
- Papp at 16 h [3]: 0.17 ×10⁻⁶ cm/s
- Permeability Pe, Bibl [11]: 0.2 ×10⁻⁶ cm/s
